Test results as given in patent US20230190705A1, “DRUG COMBINATION FOR TREATING DIABETES MELLITUS AND COMPLICATIONS THEREOF AND PHARMACEUTICAL COMPOSITION OF DRUG COMBINATION” (Chengdu Chipscreen Pharmaceutical Ltd., priority 2020, published 2023).

What was measured:
db/db male mice [1] = experiment: Body weight and fasting blood glucose, chiglitazar sodium with empagliflozin (Example 1); format: in vivo; settings: oral once a day for 14 days, 10 mg/kg chiglitazar sodium, 3 mg/kg empagliflozin or both, FIG. 1; for fasting blood glucose: 4-6 hours of fasting
Protocol: Experimental design: the effects on body weight and blood glucose of single and combined medication were investigated, by oral administration of chiglitazar sodium, empagliflozin, or a combination thereof to mice.
(§1) Experimental procedure: 6-Week-old db/db male mice were orally administered once a day with 100 µL of vehicle (0.1% sodium carboxymethylcellulose), 10 mg/kg chiglitazar sodium, 3 mg/kg empagliflozin, or a combination of chiglitazar sodium and empagliflozin at the same doses simultaneously, respectively, according to body weight. Wild-type C57BLKS/Jnju mice were used as normal control (administered with the vehicle). The period of administration was 14 days, and the animals were treated and dissected on Day 15. Starting from the administration, the mice were subjected to weighing and measurement of fasting blood glucose (4-6 hours of fasting) every 3 days.

db/db male mice [2] = experiment: Body weight and fasting blood glucose, chiglitazar sodium with dapagliflozin (Example 2); format: in vivo; settings: oral once a day for 14 days, 10 mg/kg chiglitazar sodium, 1.5 mg/kg dapagliflozin or both, FIG. 2
Protocol: Experimental design: the effects on body weight and blood glucose of single and combined medication were investigated, by oral administration of chiglitazar sodium, dapagliflozin, or a combination thereof to mice.
Wild-type C57BLKS/Jnju mice were used as normal control (administered with vehicle). The period of administration was 14 days, and the animals were treated and dissected on Day 15. Starting from the administration, the mice were subjected to weighing and measurement of fasting blood glucose (4-6 hours of fasting) every 3 days.

db/db male mice [3] = experiment: Blood lipids (serum TC and TG), chiglitazar sodium with empagliflozin (Example 3); format: in vivo; settings: oral once a day for 14 days, serum on Day 15, 10 mg/kg chiglitazar sodium, 3 mg/kg empagliflozin or both, FIG. 3
Protocol: Experimental design: the effects on total cholesterol (TC) and triglyceride (TG) in mouse serum of single and combined medication were investigated, by oral administration of chiglitazar sodium, empagliflozin, or a combination thereof to diabetic mice.
as §1, with “with” for “with the”, “Whole blood was collected, serum was centrifuged and serum TC and TG” for “Starting from the administration, the mice”, “measured by biochemical analyzer.” for “subjected to weighing and measurement of fasting blood glucose (4-6 hours of fasting) every 3 days.”

db/db male mice [4] = experiment: Blood lipids (serum TC and TG), chiglitazar sodium with dapagliflozin (Example 4); format: in vivo; settings: oral once a day for 14 days, serum on Day 15, 10 mg/kg chiglitazar sodium, 1.5 mg/kg dapagliflozin or both, FIG. 4
Protocol: Experimental design: the effects on total cholesterol (TC) and triglyceride (TG) in mouse serum of single and combined medication were investigated, by oral administration of chiglitazar sodium, dapagliflozin, or a combination thereof to diabetic mice.
Wild-type C57BLKS/Jnju mice were used as normal control (administered with vehicle). The period of administration was 14 days, and the animals were treated and dissected on Day 15. Whole blood was collected, serum was centrifuged and serum TC and TG were measured by biochemical analyzer.

diabetic patients = settings: clinical studies; cited from earlier work

Row | Compound | fasting blood glucose (db/db male mice [1]) | body weight (db/db male mice [1]) | fasting blood glucose (db/db male mice [2]; 4-6 hours of fasting) | body weight (db/db male mice [2]) | serum total cholesterol (TC) (db/db male mice [3]) | serum triglyceride (TG) (db/db male mice [3]) | serum total cholesterol (TC) (db/db male mice [4]) | serum triglyceride (TG) (db/db male mice [4]) | efficacy on blood glucose and lipids in diabetic patients (diabetic patients) | weight gain effect in diabetic patients (diabetic patients)
1 | O=C(c1ccc(F)cc1)c1ccccc1NC(Cc1ccc(OCCn2c3ccccc3c3ccccc32)cc1)C(=O)O (stereo not shown) [chiglitazar sodium] | could reduce blood glucose to a certain extent | weight gain | could reduce blood glucose to a certain extent | weight gain | could reduce the serum total cholesterol and triglyceride levels to a certain extent | could reduce the serum total cholesterol and triglyceride levels to a certain extent | could reduce the serum total cholesterol and triglyceride levels to a certain extent | could reduce the serum total cholesterol and triglyceride levels to a certain extent | has efficacy in reducing blood glucose and improving lipids in diabetic patients | having certain weight gain effect
2 | OC[C@H]1O[C@@H](c2ccc(Cl)c(Cc3ccc(O[C@H]4CCOC4)cc3)c2)[C@H](O)[C@@H](O)[C@@H]1O [empagliflozin, reference compound] | could reduce blood glucose to a certain extent |  |  |  | could reduce the serum total cholesterol and triglyceride levels to a certain extent | could reduce the serum total cholesterol and triglyceride levels to a certain extent |  |  |  | 
